Results taken from patent publication US5103018A, “Mitomycin derivatives” (Kyowa Hakko Kogyo Kabushiki Kaisha, priority 1986, dated 1992).
Values after ≈ are worked out from the molar mass of the structure shown.

Experiments:
Sarcoma 180 solid tumour = test: animal or person; assay type: in vivo, mice (ddy strain); details: for ED50: Mus musculus, Sarcoma-180, ip, 168 h, read-out: ED50 ip
Source text: (§1) Certain compounds were selected from Compounds I. The following Table 4 indicates anti-tumour activity against Sarcoma 180 solid tumour (ED50), acute toxicity (LD50) and effects on the peripheral leucocytes (WBC4000) of each compound.
(1) Effect against Sarcoma 180 solid tumour:
5×10^6 cells of Sarcoma 180 solid tumour cells were abdominally implanted into male mice of ddy strain. 7 days after this, ascites cells were sampled. The cells were washed once with a sterilized physiological solution of sodium chloride and were used to prepare a cell suspension containing 5×10^7 cells per ml. On each occasion, 0.1 ml of the cell suspension was subcutaneously implanted into the right armpit of a male mouse (ddy strain; body weight 20±2 g). 24 hours after the implantation of the tumour cells, the test compound which was dissolved in a physiological solution of sodium chloride with or without addition of Tween 80 was abdominally administered to each mouse of a group consisting of 5 animals at a does of 0.1-0.2 ml. The anti-tumour activity was determined as follows:
7 days after the implantation, the major axis (a) and the minor axis (b) of the tumour were measured to calculate a value of "a×b^2 /2" which corresponds to the volume of the tumour. The anti-tumour activity was expressed by T/C viz. the ratio of the volume of the tumours (T) of the group of animals administered with the test compound to the corresponding volume of tumours (C) of the untreated animals.
(2) Determination of ED50 :
The term ED50 denotes the administered amount needed for reducing the volume of Sarcoma 180 solid tumours in the animals to 50% on the basis of the corresponding volume of Sarcoma 180 solid tumours in control (untreated) animals.
On graph paper, T/C was indicated by an arithmetic scale on the longitudinal axis and the administered amount of test compound was indicated by a logarithmic scale on the lateral axis.

Acute toxicity = assay type: in vivo, mice (ddy); details: mouse, in vivo, ip; for LD50 at 336 h: ddy mice, single i.p., 14 days, Behren Korber's method; for selectivity ratio: read-out: (C.I.)* = (LD50/ED50)/[(LD50/ED50) of MMC1]
Method: as §1
Each animal of the test group consisting of 5 ddy mice was once administered (i.p.) with a test compound. […] The LD50 was determined by Behren Korber's method.

in vivo = assay type: in vivo, mice (ddy strain); details: mouse, in vivo, ip; read-out: (WBC4000/ED50)* = (WBC4000/ED50)/[(WBC4000/ED50) of MMC1]
Method: as §1
(4) Effect upon the number of the peripheral leucocytes:
Sarcoma 180 solid tumour cells (5×10^6) were subcutaneously implanted into the right armpit of each mouse (body weight 20±2 g) of a group consisting of 5 male mice (ddy strain). 24 hours after implantation,a test compound was abdominally administered to each mouse. 4 days later, blood (each 0.02 ml) was collected from the suborbital plexus vein of each tumour-carrying mouse. The collected sample of blood was dispersed in 9.98 ml of Cell-kit Seven solution. One drop of saponin solution was added to the sample to dissolve erythrocytes and then a microcell counter was used to measure the number of leucocytes. On graph paper, the number of leucocytes was indicated on the y-axis by an arithmetic scale and the does of the test compound was indicated on the x-axis by a logarithmic scale.
The relationship between the number of peripheral leucocytes and the dosage of the test compound was plotted to obtain WBC4000 viz. the dosage corresponding to […] per mm^3 (about half of the number of leucocytes of normal mice).

[1] = test system: Streptococcus faecalis ATCC 10541; test: Minimum inhibitory concentration, agar dilution method, SF; assay type: cell-based; details: Enterococcus faecalis, ATCC10541, pH 7, read-out: minimum inhibitory concentration, SF
Source text: (§2) Certain Compounds I were selected. Table 3 indicates their anti-bacterial activities in terms of their minimum inhibitory concentration (μg/ml), determined by the agar dilution method effected at a pH of 7.0. In this table, the microorganisms used are abbreviated as follows:
SF: Streptococcus faecalis ATCC 10541

[2] = test system: Staphylococcus aureus ATCC 6583P; test: Minimum inhibitory concentration, agar dilution method, SA; assay type: cell-based; details: Staphylococcus aureus, ATCC6583P, pH 7, read-out: minimum inhibitory concentration, SA
Source text: as §2
SA: Staphylococcus aureus ATCC 6583P

Molecule	ED50 ip (Sarcoma 180 solid tumour; ddy mice, i.p. 24 h after implantation, 50% reduction of tumour volume at day 7)	ED50 (Sarcoma 180 solid tumour)	LD50 at 336 h (Acute toxicity)	selectivity ratio (Acute toxicity)	selectivity ratio (in vivo)	MIC [1]	MIC [2]
7-N-[2-[[2-[[(1S)-5-amino-1-carboxypentyl]carbamoyl]ethyl]dithio]ethyl]mitomycin C [Compound 23]	6.2 mg/kg	–	–	–	–	–	–
CC1=C(NCCSSCCNC(=O)C[C@H](N)C(=O)O)C(=O)C2=C(C1=O)N1C[C@H]3[C@H](N3C)[C@]1(O)[C@H]2COC(N)=O (stereo partly drawn) [Compound 10, 7-N-[2-[[2-(N^4 -L-asparagino)ethyl]dithio]ethyl]mitomycin D]	–	13 mg/kg	75 mg/kg	2.19	2.5	–	–
CC1=C(NCCSSCCNC(=O)CC[C@@H](N)C(=O)O)C(=O)C2=C(C1=O)N1C[C@H]3[C@H](N3C)[C@]1(O)[C@H]2COC(N)=O (stereo partly drawn) [Compound 11, 7-N-[2-[[2-(N^5 -D-glutamino)ethyl]dithio]ethyl]mitomycin D]	–	16.9 mg/kg	75 mg/kg	1.59	1.64	–	–
CC1=C(NCCSSCCNC(=O)[C@@H]2CCC(=O)N2)C(=O)C2=C(C1=O)N1C[C@H]3[C@H](N3C)[C@]1(O)[C@H]2COC(N)=O (stereo partly drawn) [Compound 12, 7-N-[2-[[2-(L-pyroglutamylamino)ethyl]dithio]ethyl]mitomycin D]	–	18.4 mg/kg	75 mg/kg	1.8	5.57	–	–
CO[C@@]12[C@H](COC(N)=O)C3=C(C(=O)C(C)=C(NCCSSCCNC(=O)[C@@H]4CCCN4)C3=O)N1C[C@@H]1N[C@@H]12 [Compound 13, 7-N-[2-[[2-(L-prolylamino)ethyl]dithio]ethyl]mitomycin C]	–	12.2 mg/kg	30 mg/kg	1.17	2.3	–	–
CO[C@@]12[C@H](COC(N)=O)C3=C(C(=O)C(C)=C(NCCSSCCNC(=O)CCC(=O)Oc4c(C)c(C)c5c(c4C)CC[C@@](C)(CCC[C@H](C)CCC[C@H](C)CCCC(C)C)O5)C3=O)N1C[C@@H]1N[C@@H]12 [Compound 16]	–	95.9 mg/kg	> 100 mg/kg	> 0.37	1.2	–	–
CC1=C(NCCSSCCNC=O)C(=O)C2=C(C1=O)N1C[C@H]3[C@H](N3C)[C@]1(O)[C@H]2COC(N)=O (stereo partly drawn) [Compound 18, 7-N-[2-[(2-formamidoethyl)dithio]ethyl]mitomycin D]	–	10.6 mg/kg	52.5 mg/kg	1.94	3.89	–	–
CO[C@@]12[C@H](COC(N)=O)C3=C(C(=O)C(C)=C(NCCSSCCNC(=O)C(F)(F)F)C3=O)N1C[C@@H]1N[C@@H]12 [Compound 19, 7-N-[2-[(2-trifluoroacetamidoethyl)dithio]ethyl]mitomycin C]	–	8.7 mg/kg	9.4 mg/kg	0.51	> 0.96	–	–
CC1=C(NCCSSCCNC(=O)C(F)(F)F)C(=O)C2=C(C1=O)N1C[C@H]3[C@H](N3C)[C@]1(O)[C@H]2COC(N)=O (stereo partly drawn) [Compound 20, 7-N-[2-[(2-trifluoroacetamidoethyl)dithio]ethyl]mitomycin D]	–	11.6 mg/kg	30 mg/kg	0.93	4.4	–	–
CO[C@@]12[C@H](COC(N)=O)C3=C(C(=O)C(C)=C(NCCSSCCC(=O)N[C@@H](CCCN)C(=O)O)C3=O)N1C[C@@H]1N[C@@H]12 [Compound 22, 7-N-[2-[[2-[[(1S)-4-amino-1-carboxybutyl]carbamoyl]ethyl]dithio]ethyl]mitomycin C]	–	5 mg/kg	–	–	–	–	–
CC1=C(NCCSSCCC(=O)N[C@@H](CCCN)C(=O)O)C(=O)C2=C(C1=O)N1C[C@H]3[C@H](N3C)[C@]1(O)[C@H]2COC(N)=O (stereo partly drawn) [Compound 24, 7-N-[2-[[2-[[(1S)-4-amino-1-carboxybutyl]carbamoyl]ethyl]dithio]ethyl]mitomycin D]	–	31.2 mg/kg	> 100 mg/kg	> 1.53	2.02	–	–
CC1=C(NCCSSCCC(=O)N[C@@H](CCCCN)C(=O)O)C(=O)C2=C(C1=O)N1C[C@H]3[C@H](N3C)[C@]1(O)[C@H]2COC(N)=O (stereo partly drawn) [Compound 25, 7-N-[2-[[2-[[(1S)-5-amino-1-carboxypentyl]carbamoyl]ethyl]dithio]ethyl]mitomycin D]	–	46.6 mg/kg	> 100 mg/kg	> 1.02	1.59	–	–
CCOC(=O)CNC(=O)CCSSCCNC1=C(C)C(=O)C2=C(C1=O)[C@@H](COC(N)=O)[C@@]1(OC)[C@H]3N[C@H]3CN21 [Compound 29, 7-N-[2-[[2-[[(ethoxycarbonyl)methyl]carbamoyl]ethyl]dithio]ethyl]mitomycin C]	–	9.4 mg/kg	33.8 mg/kg	1.77	2.9	–	–
CCOC(=O)CNC(=O)C(C)SSCCNC1=C(C)C(=O)C2=C(C1=O)[C@@H](COC(N)=O)[C@@]1(OC)[C@H]3N[C@H]3CN21 (stereo partly drawn) [Compound 30, 7-N-[2-[[1-[[(ethoxycarbonyl)methyl]carbamoyl]ethyl]dithio]ethyl]mitomycin C]	–	10.3 mg/kg	–	–	–	–	–
CO[C@@]12[C@H](COC(N)=O)C3=C(C(=O)C(C)=C(NCCSSCCC(=O)NCCc4ccc(O)c(O)c4)C3=O)N1C[C@@H]1N[C@@H]12 [Compound 31, 7-N-[2-[[2-[[2-(3,4-dihydroxyphenyl)ethyl]carbamoyl]ethyl]dithio]ethyl]mitomycin C]	–	7.1 mg/kg	26.3 mg/kg	1.15	2.28	–	–
CO[C@@]12[C@H](COC(N)=O)C3=C(C(=O)C(C)=C(NCCSSCCOC(=O)/C=C(C)/C=C/C=C(C)/C=C/C4=C(C)CCCC4(C)C)C3=O)N1C[C@@H]1N[C@@H]12 [Compound 35, 7-N-[2-[[2-(retinoyloxy)ethyl]dithio]ethyl]mitomycin C]	–	–	–	–	–	10 µg/mL (≈ 13.3 µM)	5 µg/mL (≈ 6.64 µM)
CO[C@@]12[C@H](COC(N)=O)C3=C(C(=O)C(C)=C(NCCSSCCS(=O)(=O)O)C3=O)N1C[C@@H]1N[C@@H]12 [Compound 36, 7-N-[2-[(2-sulfoethyl)dithio]ethyl]mitomycin C]	–	7 mg/kg	–	–	–	–	–
CO[C@@]12[C@H](COC(N)=O)C3=C(C(=O)C(C)=C(NCCSSCc4c[nH]c(=O)[nH]c4=O)C3=O)N1C[C@@H]1N[C@@H]12 [Compound 37, 7-N-[2-[[(2,4-dioxopyrimidin-5-yl)methyl]dithio]ethyl]mitomycin C]	–	16.4 mg/kg	–	–	–	–	–
CC1=C(NCCSSCc2c[nH]c(=O)[nH]c2=O)C(=O)C2=C(C1=O)N1C[C@H]3[C@H](N3C)[C@]1(O)[C@H]2COC(N)=O (stereo partly drawn) [Compound 38, 7-N-[2-[[(2,4-dioxopyrimidin-5-yl)methyl]dithio]ethyl]mitomycin D]	–	24.5 mg/kg	> 150 mg/kg	> 2.26	> 8.71	–	–
CC1=C(NCCSSCc2cn([C@H]3C[C@H](O)[C@@H](CO)O3)c(=O)[nH]c2=O)C(=O)C2=C(C1=O)N1C[C@H]3[C@H](N3C)[C@]1(O)[C@H]2COC(N)=O (stereo partly drawn) [Compound 40, 7-N-[2-[[(2'-deoxyuridin-5-yl)methyl]dithio]ethyl]mitomycin D]	–	104 mg/kg	≥ 200 mg/kg	1.22	0.95	–	–
